ChEMBL document CHEMBL1201862, “PubChem BioAssay data set” (2004)
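Each compound was tested at five concentrations against cells in 96-well plates for 48 hours. GI50 marks 50% less growth.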 Activity calls are given as the source filed them. Cut-off read from the data, not from the text of the source: active = GI50 up to about 1.1 µM and inactive = higher.

What was measured:
Assay in all cases: NCI-60 cell line screen, 48 h
[1] = tested on: 786-0
[2] = tested on: A498
[3] = tested on: A549
[4] = tested on: ACHN
[5] = tested on: BT-549
[6] = tested on: CAKI-1
[7] = tested on: CCRF-CEM
[8] = tested on: COLO 205
[9] = tested on: DU-145
[10] = tested on: EKVX
[11] = tested on: HCC 2998
[12] = tested on: HCT-116
[13] = tested on: HCT-15
[14] = tested on: HL-60
[15] = tested on: HOP-62
[16] = tested on: HOP-92
[17] = tested on: HT-29
[18] = tested on: Hs-578T
[19] = tested on: IGROV-1
[20] = tested on: K562
[21] = tested on: KM12
[22] = tested on: LOX IMVI
[23] = tested on: M14
[24] = tested on: MCF7
[25] = tested on: MDA-MB-435
[26] = tested on: MDA-N
[27] = tested on: MOLT-4
[28] = tested on: Malme-3M
[29] = tested on: NCI-H23
[30] = tested on: NCI-H460
[31] = tested on: NCI-H522
[32] = tested on: NCI/ADR-RES
[33] = tested on: OVCAR-3
[34] = tested on: OVCAR-4
[35] = tested on: OVCAR-5
[36] = tested on: OVCAR-8
[37] = tested on: RPMI-8226
[38] = tested on: RXF 393
[39] = tested on: SF-268
[40] = tested on: SF-295
[41] = tested on: SF-539
[42] = tested on: SK-MEL-28
[43] = tested on: SK-MEL-5
[44] = tested on: SK-OV-3
[45] = tested on: SN12C
[46] = tested on: SNB-19
[47] = tested on: SNB-75
[48] = tested on: SR
[49] = tested on: SW-620
[50] = tested on: TK-10
[51] = tested on: UACC-257
[52] = tested on: UACC-62
[53] = tested on: UO-31
[54] = tested on: MDA-MB-231
[55] = tested on: NCI-H226
[56] = tested on: PC-3
[57] = tested on: SK-MEL-2
[58] = tested on: T47D
[59] = tested on: U-251

CCOC(=O)C1(C(=O)OCC)CN(CC)CN(c2ccccc2)C1
GI50 [1]: 19.8 µM (inactive)
GI50 [2]: > 100 µM (inactive)
GI50 [3]: 22.2 µM (inactive)
GI50 [4]: 19.9 µM (inactive)
GI50 [5]: 20.8 µM (inactive)
GI50 [6]: 17.8 µM (inactive)
GI50 [7]: 16.2 µM (inactive)
GI50 [8]: 18.2 µM (inactive)
GI50 [9]: 30 µM (inactive)
GI50 [10]: 17.6 µM (inactive)
GI50 [11]: 15.4 µM (inactive)
GI50 [12]: 48.3 µM (inactive)
GI50 [13]: 16 µM
GI50 [14]: 22.2 µM (inactive)
GI50 [15]: 21.1 µM (inactive)
GI50 [16]: 16.5 µM (inactive)
GI50 [17]: 17.8 µM (inactive)
GI50 [18]: > 100 µM (inactive)
GI50 [19]: 19.6 µM (inactive)
GI50 [20]: 39.4 µM (inactive)
GI50 [21]: > 100 µM (inactive)
GI50 [22]: 91.2 µM (inactive)
GI50 [23]: 19.1 µM (inactive)
GI50 [24]: 18.5 µM (inactive)
GI50 [25]: 19.1 µM (inactive)
GI50 [26]: 35.6 µM (inactive)
GI50 [27]: 18.3 µM (inactive)
GI50 [28]: 38.3 µM (inactive)
GI50 [29]: 18.4 µM (inactive)
GI50 [30]: 35.4 µM (inactive)
GI50 [31]: 29.3 µM (inactive)
GI50 [32]: 45.6 µM (inactive)
GI50 [33]: 18.5 µM (inactive)
GI50 [34]: 25.1 µM (inactive)
GI50 [35]: 19.2 µM (inactive)
GI50 [36]: 21.5 µM (inactive)
GI50 [37]: 18.2 µM (inactive)
GI50 [38]: 17.1 µM (inactive)
GI50 [39]: 69.2 µM (inactive)
GI50 [40]: > 100 µM (inactive)
GI50 [41]: 21.5 µM (inactive)
GI50 [42]: 18.7 µM (inactive)
GI50 [43]: 34.8 µM (inactive)
GI50 [44]: > 100 µM (inactive)
GI50 [45]: 37.1 µM (inactive)
GI50 [46]: > 100 µM (inactive)
GI50 [47]: 19.4 µM (inactive)
GI50 [48]: 21 µM (inactive)
GI50 [49]: 30.6 µM (inactive)
GI50 [50]: 19 µM (inactive)
GI50 [51]: 17.2 µM (inactive)
GI50 [52]: 26.5 µM (inactive)
GI50 [53]: 28 µM (inactive)

CCOC(=O)C1=C(C)NC(=O)NC1c1ccc(N(CCCl)CCCl)cc1Cl (stereo not given)
GI50 [1]: 15.8 µM (inactive)
GI50 [2]: 15.9 µM (inactive)
GI50 [3]: 13.7 µM (inactive)
GI50 [4]: 14.5 µM (inactive)
GI50 [5]: 15.5 µM (inactive)
GI50 [6]: 17.2 µM (inactive)
GI50 [8]: 18.6 µM (inactive)
GI50 [9]: 18.2 µM (inactive)
GI50 [10]: 22.5 µM (inactive)
GI50 [12]: 14.3 µM (inactive)
GI50 [13]: 17.1 µM
GI50 [14]: 1.73 µM (inactive)
GI50 [15]: 15.2 µM (inactive)
GI50 [16]: 13 µM (inactive)
GI50 [17]: 16 µM (inactive)
GI50 [18]: 17.1 µM (inactive)
GI50 [19]: 15.1 µM (inactive)
GI50 [20]: 12 µM (inactive)
GI50 [21]: 19.7 µM (inactive)
GI50 [22]: 15.9 µM (inactive)
GI50 [23]: 15.8 µM (inactive)
GI50 [24]: 13.6 µM (inactive)
GI50 [54]: 13.6 µM (inactive)
GI50 [25]: 19 µM (inactive)
GI50 [28]: 14.9 µM (inactive)
GI50 [55]: 15.2 µM (inactive)
GI50 [29]: 18.7 µM (inactive)
GI50 [30]: 13 µM (inactive)
GI50 [31]: 13.6 µM (inactive)
GI50 [32]: 16.7 µM (inactive)
GI50 [33]: 15.5 µM (inactive)
GI50 [34]: 17.2 µM (inactive)
GI50 [35]: 17.9 µM (inactive)
GI50 [36]: 12.9 µM (inactive)
GI50 [56]: 15.2 µM (inactive)
GI50 [38]: 17.1 µM (inactive)
GI50 [39]: 15.5 µM (inactive)
GI50 [40]: 15.8 µM (inactive)
GI50 [41]: 17.2 µM (inactive)
GI50 [42]: 17.6 µM (inactive)
GI50 [57]: 16.3 µM (inactive)
GI50 [43]: 14.7 µM (inactive)
GI50 [44]: 17.3 µM (inactive)
GI50 [45]: 16.3 µM (inactive)
GI50 [46]: 17.3 µM (inactive)
GI50 [47]: 14.9 µM (inactive)
GI50 [49]: 17.9 µM (inactive)
GI50 [58]: 5.77 µM (inactive)
GI50 [50]: 18.3 µM (inactive)
GI50 [59]: 16.6 µM (inactive)
GI50 [51]: 16 µM (inactive)
GI50 [52]: 10.6 µM (inactive)
GI50 [53]: 14.3 µM (inactive)

O=C(Nn1c(-c2cccs2)nc2ccc(I)cc2c1=O)c1ccccc1
GI50 [1]: 43.2 µM (inactive)
GI50 [3]: 18.8 µM (inactive)
GI50 [4]: 30.7 µM (inactive)
GI50 [5]: 16.4 µM (inactive)
GI50 [6]: 21.9 µM (inactive)
GI50 [8]: 30.7 µM (inactive)
GI50 [9]: 20.6 µM (inactive)
GI50 [10]: 27.8 µM (inactive)
GI50 [11]: 22 µM (inactive)
GI50 [12]: 35.3 µM (inactive)
GI50 [13]: 30.6 µM
GI50 [15]: 40.7 µM (inactive)
GI50 [16]: 17.8 µM (inactive)
GI50 [17]: 29.8 µM (inactive)
GI50 [19]: 20.2 µM (inactive)
GI50 [21]: 27.9 µM (inactive)
GI50 [22]: 21.4 µM (inactive)
GI50 [23]: 36.3 µM (inactive)
GI50 [25]: 20.6 µM (inactive)
GI50 [26]: 43.9 µM (inactive)
GI50 [27]: 41.3 µM (inactive)
GI50 [55]: 28.5 µM (inactive)
GI50 [29]: 21.2 µM (inactive)
GI50 [30]: 26.8 µM (inactive)
GI50 [31]: 22.1 µM (inactive)
GI50 [32]: 31.8 µM (inactive)
GI50 [33]: 16.9 µM (inactive)
GI50 [34]: 23 µM (inactive)
GI50 [35]: 37.8 µM (inactive)
GI50 [36]: 39 µM (inactive)
GI50 [56]: 33.9 µM (inactive)
GI50 [38]: 35.4 µM (inactive)
GI50 [39]: 34.4 µM (inactive)
GI50 [40]: 26.9 µM (inactive)
GI50 [42]: 24.7 µM (inactive)
GI50 [43]: 21.9 µM (inactive)
GI50 [45]: 35.6 µM (inactive)
GI50 [46]: 21.3 µM (inactive)
GI50 [48]: 23.6 µM (inactive)
GI50 [49]: 71.6 µM (inactive)
GI50 [50]: 30.3 µM (inactive)
GI50 [59]: 24.7 µM (inactive)
GI50 [52]: 20.6 µM (inactive)
GI50 [53]: 28.3 µM (inactive)
